Experimental data taken from patent US20260070929A1, “METHODS AND COMPOSITIONS FOR MODULATING KRAS(G12D)” (Ranok Therapeutics (Hangzhou) Co. LTD., priority 2022, published 2026).
Where two headings read alike, the source gives them in different places.

How the values were obtained:
[1] = system: ASPC1 pancreatic adenocarcinoma cells [homozygous G12D]; experiment: Cancer cell line proliferation (CellTiter-Glo), ASPC1; assay type: cell-based; settings: 72 hr treatment, read-out: ASPC-1 CTG (EC50)
Method in brief: (§1)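 A 72 hr proliferation format is used: cells at 4,000/well, pre-grown 72 hr, then treated at 37° C./5% CO2 with 0.5% DMSO final. CellTiter-Glo measures viable cells, from which EC50 is calculated.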

[2] = system: A-427 lung carcinoma cells [heterozygous G12D]; experiment: Cancer cell line proliferation (CellTiter-Glo), A-427; assay type: cell-based; settings: A-427 cells, 72 hr treatment, read-out: A427 CTG (EC50)
Method in brief: as §1

[3] = system: SW1990 pancreatic adenocarcinoma cells [homozygous G12D]; experiment: Cancer cell line proliferation (CellTiter-Glo), SW1990; assay type: cell-based; settings: 72 hr treatment, read-out: SW1990 CTG (EC50)
Method in brief: as §1

KRAS(G12D)/SOS1 = molecular target: T1, KRAS(G12D)/SOS1 (Homo sapiens, UniProt P01116, G12D); experiment: KRAS(G12D)/SOS1 homogeneous time-resolved fluorescence (HTRF) assay; assay type: binding; settings: absence of GTP; 4° C., 3 hr
T1 construct: purchased Cisbio 63ADK000CB17PEH
T1 sequence (P01116 1-188 isoform P01116-2 G12D): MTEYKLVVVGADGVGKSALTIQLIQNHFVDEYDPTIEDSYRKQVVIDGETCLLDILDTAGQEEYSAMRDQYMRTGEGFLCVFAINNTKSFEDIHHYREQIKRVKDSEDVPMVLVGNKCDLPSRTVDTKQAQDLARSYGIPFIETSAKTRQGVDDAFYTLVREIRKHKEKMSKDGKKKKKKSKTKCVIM
Method in brief: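 Disruption of the KRAS(G12D)/SOS1 pairing, in the absence of GTP, was read by time-resolved FRET after a 3 hr sealed incubation at 4 °C. Test compounds spanned 20 µM down to 1.02 nM in 3-fold steps. IC50 values correspond to half-maximal inhibition.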

[4] = system: AGS gastric carcinoma cells [heterozygous G12D]; experiment: Cancer cell line proliferation (CellTiter-Glo), AGS; assay type: cell-based; settings: 72 hr treatment, read-out: AGS CTG (EC50)
Method in brief: as §1

| Compound | EC50 ([1]; Homo sapiens, ASPC1, 72 h) [nM] | EC50 ([2]; Homo sapiens) [nM] | EC50 ([3]; Homo sapiens) [nM] | IC50 (KRAS(G12D)/SOS1) [nM] | EC50 ([4]; Homo sapiens) [nM] | EC50 [1] [nM] | EC50 [2] [nM] | EC50 [3] [nM] | EC50 [4] [nM] |
| --- | --- | --- | --- | --- | --- | --- | --- | --- | --- |
| C#Cc1cccc2cc(O)cc(-c3ncc4c(N5CC6CCC(C5)N6C(=O)C(F)(F)F)nc(OCC5(CN6CCN(CC7CCN(Cc8ccc(-n9c(C(=O)NCC(F)(F)F)nnc9-c9cc(C(C)C)c(O)cc9O)cc8)CC7)CC6)CC5)nc4c3F)c12 [Compound 143] | 100 to 1000 | < 100 | < 100 | 100 to 1000 | < 100 | – | – | – | – |
| C#Cc1cccc2cc(O)cc(-c3ncc4c(N5CC6CCC(C5)N6)nc(OCC5(CN6CCN(CC7CCN(Cc8ccc(-n9c(C(=O)NC(C)C(F)(F)F)nnc9-c9cc(C(C)C)c(O)cc9O)cc8)CC7)CC6)CC5)nc4c3F)c12 (stereo not drawn) [Compound 126] | < 100 | < 100 | < 100 | < 100 | < 100 | – | – | – | – |
| CCNC(=O)c1nnc(-c2cc(C(C)C)c(O)cc2O)n1-c1ccc(CN2CCC(C(=O)N3CCN([C@H]4C[C@@H](COc5nc(N6CC7CCC(C6)N7)c6cnc(-c7cccc(C)c7C)c(F)c6n5)N(C)C4)CC3)CC2)cc1 [Compound 56] | 100 to 1000 | 100 to 1000 | < 100 | > 1000 | < 100 | – | – | – | – |
| C#Cc1c(F)ccc2cc(O)cc(-c3ncc4c(N5CC6CCC(C5)N6)nc(OCC5(CN6CCN(CC7CCN(Cc8ccc(-n9c(C(=O)NCC(F)(F)F)nnc9-c9cc(C(C)C)c(O)cc9O)cc8)CC7)CC6)CC5)nc4c3F)c12 [Compound 154] | < 100 | < 100 | < 100 | < 100 | < 100 | – | – | – | – |
| C#Cc1cccc2cc(O)cc(-c3ncc4c(N5CC6CCC(C5)N6C(C)=O)nc(OCC5(CN6CCN(CC7CCN(Cc8ccc(-n9c(C(=O)NC(C)C(F)(F)F)nnc9-c9cc(C(C)C)c(O)cc9O)cc8)CC7)CC6)CC5)nc4c3F)c12 (stereo not drawn) [Compound 150] | 100 to 1000 | < 100 | < 100 | 100 to 1000 | < 100 | – | – | – | – |
| C#Cc1cccc2cc(O)cc(-c3ncc4c(N5CC6CCC(C5)N6)nc(OCC5(CN6CCN(CC7CCN(Cc8ccc(-n9c(C(=O)NCC(F)(F)F)nnc9-c9cc(C(C)C)c(O)cc9O)cc8)CC7)CC6)CC5)nc4c3F)c12 [Compound 127] | < 100 | < 100 | < 100 | < 100 | < 100 | – | – | – | – |
| C#Cc1cccc2cccc(-c3ncc4c(N5CC6CCC(C5)N6)nc(OCC5(CN6CCN(Cc7ccc(-n8c(C(=O)NCC(F)(F)F)nnc8-c8cc(C(C)C)c(O)cc8O)cc7)CC6)CC5)nc4c3F)c12 [Compound 54] | 100 to 1000 | 100 to 1000 | < 100 | < 100 | < 100 | – | – | – | – |
| C#Cc1cccc2cc(O)cc(-c3ncc4c(N5CC6CCC(C5)N6)nc(OCC5(CN6CCC(C(=O)N7CCN(Cc8ccc(-n9c(C(=O)NC(C)C(F)(F)F)nnc9-c9cc(C(C)C)c(O)cc9O)cc8)CC7)CC6)CC5)nc4c3F)c12 (stereo not drawn) [Compound 120] | 100 to 1000 | 100 to 1000 | < 100 | < 100 | < 100 | – | – | – | – |
| C#Cc1cccc2cc(O)cc(-c3ncc4c(N5CC6CCC(C5)N6)nc(OCC5(CN6CCN(Cc7ccc(-n8c(C(=O)NC(C)C(F)(F)F)nnc8-c8cc(C(C)C)c(O)cc8O)cc7)CC6)CC5)nc4c3F)c12 (stereo not drawn) [Compound 155] | 100 to 1000 | 100 to 1000 | 100 to 1000 | < 100 | 100 to 1000 | – | – | – | – |
| C#Cc1cccc2cc(O)cc(-c3ncc4c(N5CC6CCC(C5)N6)nc(OCC5(CN6CCN(Cc7ccc8c(c7)CN(C(=O)c7cc(C(C)C)c(O)cc7O)C8)CC6)CC5)nc4c3F)c12 [Compound 131] | 100 to 1000 | 100 to 1000 | < 100 | < 100 | < 100 | – | – | – | – |
| CC(C)c1cc(C(=O)N2Cc3ccc(CN4CCN([C@H]5C[C@@H](COc6nc(N7CC8CCC(C7)N8)c7cnc(-c8cc(O)cc9ccccc89)c(F)c7n6)N(C)C5)CC4)cc3C2)c(O)cc1O [Compound 25] | > 1000 | 100 to 1000 | < 100 | < 100 | < 100 | – | – | – | – |
| C#Cc1cccc2cc(O)cc(-c3ncc4c(N5CC6CCC(C5)N6)nc(OC[C@@H]5C[C@H](CN6CCN(Cc7ccc(-n8c(C(=O)NCC(F)(F)F)nnc8-c8cc(C(C)C)c(O)cc8O)cc7)CC6)CN5C)nc4c3F)c12 [Compound 123] | 100 to 1000 | 100 to 1000 | < 100 | < 100 | < 100 | – | – | – | – |
| C#Cc1c(F)ccc2cc(O)cc(-c3ncc4c(N5CC6CCC(C5)N6)nc(OCC5(CN6CCN(CC7CCN(c8ccc(-n9c(C(=O)NCC)nnc9-c9cc(C(C)C)c(O)cc9O)cc8)CC7)CC6)CC5)nc4c3F)c12 [Compound 145] | 100 to 1000 | < 100 | < 100 | < 100 | < 100 | – | – | – | – |
| C#Cc1cccc2cc(O)cc(-c3ncc4c(N5CC6CCC(C5)N6)nc(OCC5(CN6CCN(CC7CCN(Cc8ccc9c(c8)CN(C(=O)c8cc(C(C)C)c(O)cc8O)C9)CC7)CC6)CC5)nc4c3F)c12 [Compound 125] | – | – | – | < 100 | – | 100 to 1000 | 100 to 1000 | < 100 | < 100 |
| C#Cc1cccc2cccc(-c3ncc4c(N5CC6CCC(C5)N6)nc(OCC5(CN6CCN(Cc7ccc(-n8c(C(=O)NC(C)C(F)(F)F)nnc8-c8cc(C(C)C)c(O)cc8O)cc7)CC6)CC5)nc4c3F)c12 (stereo not drawn) [Compound 55] | 100 to 1000 | 100 to 1000 | 100 to 1000 | 100 to 1000 | 100 to 1000 | – | – | – | – |
| C#Cc1cccc2cc(O)cc(-c3ncc4c(N5CC6CCC(C5)N6)nc(OCC5(CN6CCN(CC7CCN(c8ccc(-n9c(C(=O)NCC)nnc9-c9cc(C(C)C)c(O)cc9O)cc8)CC7)CC6)CC5)nc4c3F)c12 [Compound 124] | 100 to 1000 | < 100 | < 100 | < 100 | < 100 | – | – | – | – |
| C#Cc1c(F)ccc2cc(O)cc(-c3ncc4c(N5CC6CCC(C5)N6)nc(OCC5(CN6CCN(CC7CCN(Cc8ccc(-n9c(C(=O)NCC)nnc9-c9cc(CC)c(O)cc9O)cc8)CC7)CC6)CC5)nc4c3F)c12 [Compound 149] | < 100 | < 100 | < 100 | < 100 | < 100 | – | – | – | – |
| CC(C)c1cc(C(=O)N2Cc3ccc(CN4CCN([C@H]5C[C@@H](COc6nc(N7CC8CCC(C7)N8)c7cnc(-c8ccccc8C(F)(F)F)c(F)c7n6)N(C)C5)CC4)cc3C2)c(O)cc1O [Compound 58] | 100 to 1000 | < 100 | 100 to 1000 | > 1000 | < 100 | – | – | – | – |
| C#Cc1c(F)ccc2cc(O)cc(-c3ncc4c(N5CC6CCC(C5)N6C(=O)C(F)(F)F)nc(OCC5(CN6CCN(CC7CCN(Cc8ccc(-n9c(C(=O)NC(C)C(F)(F)F)nnc9-c9cc(C(C)C)c(O)cc9O)cc8)CC7)CC6)CC5)nc4c3F)c12 (stereo not drawn) [Compound 146] | 100 to 1000 | < 100 | < 100 | 100 to 1000 | < 100 | – | – | – | – |
| C#Cc1cccc2cc(O)cc(-c3ncc4c(N5CC6CCC(C5)N6)nc(OCC5(CN6CCN(C(=O)C7CCN(Cc8ccc9c(c8)CN(C(=O)c8cc(C(C)C)c(O)cc8O)C9)CC7)CC6)CC5)nc4c3F)c12 [Compound 157] | 100 to 1000 | 100 to 1000 | 100 to 1000 | < 100 | < 100 | – | – | – | – |
| C#Cc1c(F)ccc2cc(O)cc(-c3ncc4c(N5CC6CCC(C5)N6)nc(OCC5(CN6CCN(CC7CCN(Cc8ccc(-n9c(C(=O)NCC)nnc9-c9cc(C(C)C)c(O)cc9O)cc8)CC7)CC6)CC5)nc4c3F)c12 [Compound 148] | < 100 | < 100 | < 100 | < 100 | < 100 | – | – | – | – |
